# Results taken from ChEMBL document CHEMBL1124380, “Synthesis and cytostatic activity of geiparvarin analogues” (1989).
# Assays:
# Format in all cases: functional
# CCRF-CEM = assay: Ability to inhibit human CEM tumor cell proliferation by 50%; details: read-out: ID50 (the source's name)
# FM3A = assay: Ability to inhibit murine FM3A tumor cell proliferation by 50%; details: Mus musculus, read-out: ID50 (the source's name)
# H9 = assay: Ability to inhibit human H9 tumor cell proliferation by 50%; details: read-out: ID50 (the source's name)
# L1210 = assay: Ability to inhibit murine L1210 tumor cell proliferation by 50%; details: Mus musculus, read-out: ID50 (the source's name)
# MT4 = assay: Ability to inhibit human MT-4 tumor cell proliferation by 50%; details: read-out: ID50 (the source's name)
# [1] = Ability to inhibit human Molt/4F tumor cell proliferation by 50%; details: read-out: ID50 (the source's name)
# Raji = assay: Ability to inhibit human Raji tumor cell proliferation by 50%; details: read-out: ID50 (the source's name)
Structure (SMILES),IC50 (CCRF-CEM),IC50 (FM3A),IC50 (H9),IC50 (L1210),IC50 (MT4),IC50 [1],IC50 (Raji)
O=C1C=C(c2ccccc2)OC1,30.2 µg/mL,31.4 µg/mL,38.6 µg/mL,45.8 µg/mL,31.7 µg/mL,31.2 µg/mL,50.1 µg/mL
C/C(=C\COc1ccc2ccc(=O)oc2c1)C1=CC(=O)C(C)(C)O1 [GEIPARVARIN],2 µg/mL,3.2 µg/mL,1.97 µg/mL,2.07 µg/mL,0.32 µg/mL,2.84 µg/mL,2.19 µg/mL
CC(C)CC1=CC(=N)C(C)(C)O1,> 100 µg/mL,33 µg/mL,> 100 µg/mL,> 100 µg/mL,> 100 µg/mL,> 100 µg/mL,> 100 µg/mL
C/C(=C\COc1ccc2ccc(=O)oc2c1)C1=CC(=N)C(C)(C)O1,18.8 µg/mL,20.7 µg/mL,21.7 µg/mL,18.4 µg/mL,8.77 µg/mL,25.8 µg/mL,26 µg/mL
CCC1OC(/C(C)=C/COc2ccc3ccc(=O)oc3c2)=CC1=O (centres undefined),3.27 µg/mL,17.2 µg/mL,4.1 µg/mL,9.77 µg/mL,1.63 µg/mL,2.84 µg/mL,2.43 µg/mL
COc1ccccc1C1=CC(=O)CO1,> 100 µg/mL,> 100 µg/mL,66.3 µg/mL,> 100 µg/mL,44.4 µg/mL,> 100 µg/mL,> 100 µg/mL
COc1ccccc1C1=CC(=O)C(C)(C)O1,66.1 µg/mL,31.7 µg/mL,63.9 µg/mL,40.4 µg/mL,30.4 µg/mL,53.3 µg/mL,89.1 µg/mL
CCC1(C)OC(/C(C)=C/COc2ccc3ccc(=O)oc3c2)=CC1=O (centres undefined),2.49 µg/mL,2.96 µg/mL,2.15 µg/mL,2.05 µg/mL,0.53 µg/mL,3.02 µg/mL,2.59 µg/mL
C/C(=C\COc1ccc2ccc(=O)oc2c1)C1=CC(=N)C2(CCCCC2)O1,4.95 µg/mL,15.8 µg/mL,14.2 µg/mL,4.05 µg/mL,4.93 µg/mL,20.5 µg/mL,23.5 µg/mL
CC1(C)OC(c2ccccc2)=CC1=N,> 100 µg/mL,24.7 µg/mL,> 100 µg/mL,66.4 µg/mL,76.2 µg/mL,> 100 µg/mL,> 100 µg/mL
CC1=CC(=N)C(c2ccccc2)(c2ccccc2)O1,29.3 µg/mL,25.4 µg/mL,30 µg/mL,24.2 µg/mL,26.5 µg/mL,25.3 µg/mL,24 µg/mL
C/C(=C\COc1ccc2ccc(=O)oc2c1)C1=CC(=O)C(C)O1 (centres undefined),3.56 µg/mL,15.6 µg/mL,2.91 µg/mL,7.05 µg/mL,2.56 µg/mL,3.32 µg/mL,10.4 µg/mL
CCCCCC1=CC(=N)C(C)(C)O1,> 100 µg/mL,24.2 µg/mL,> 100 µg/mL,98.3 µg/mL,> 100 µg/mL,> 100 µg/mL,> 100 µg/mL
CCC1(C)OC(/C(C)=C/COc2ccc3ccc(=O)oc3c2)=CC1=N (centres undefined),3.57 µg/mL,14.1 µg/mL,2.58 µg/mL,4.71 µg/mL,2.65 µg/mL,3.17 µg/mL,17.9 µg/mL
C/C(=C\COc1ccc2ccc(=O)oc2c1)C1=CC(=O)C2(CCCCC2)O1,2.72 µg/mL,6.61 µg/mL,2.08 µg/mL,1.82 µg/mL,2.1 µg/mL,12.7 µg/mL,5.43 µg/mL
C/C(=C\CO)CC1=CC(=O)C(C)(C)O1,10.3 µg/mL,23.3 µg/mL,9.13 µg/mL,15.8 µg/mL,3.05 µg/mL,15.2 µg/mL,16.6 µg/mL
CC(C)CC1=CC(=N)C(C)(C)O1.O=C(O)C(=O)O,> 100 µg/mL,33.2 µg/mL,> 100 µg/mL,> 100 µg/mL,> 100 µg/mL,> 100 µg/mL,> 100 µg/mL
